Experimental data taken from article PMC9572521, “Synthesis, Docking Studies and Pharmacological Evaluation of Serotoninergic Ligands Containing a 5-Norbornene-2-Carboxamide Nucleus” (Molecules, 2022).
Entries after “also recorded” stand apart in the source; their conditions may differ. Where two headings read alike, the source gives them in different places.

Experiments:
[1] = system: 5-HT2A receptors (5-HT-induced contractions in the rat ileum); test: 5-HT-evoked contractions of isolated rat ileum; conditions: 5-HT 10^−5 M; compounds 10^−8–10^−5 M
[2] = molecular target: T1, 5-HT1A receptor (Rattus norvegicus, UniProt P19327); test: Functional 5-HT1A receptor [35S]GTPγS assay (agonist mode); format: biochemical; conditions: [35S]GTPγS, rat hippocampus homogenate;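 also: male Sprague-Dawley rat hippocampal membranes incubated 90 min at 37 °C, bound label counted by scintillation after filtration, non-specific binding defined with 100 µM unlabeled GTPγS, one-site curve fit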
T1 construct: 15 μg/mL of hippocampus homogenate was incubated in triplicate with 0.8 nM; from tissue; host or cells: rat hippocampus homogenate
T1 sequence (P19327 1-422): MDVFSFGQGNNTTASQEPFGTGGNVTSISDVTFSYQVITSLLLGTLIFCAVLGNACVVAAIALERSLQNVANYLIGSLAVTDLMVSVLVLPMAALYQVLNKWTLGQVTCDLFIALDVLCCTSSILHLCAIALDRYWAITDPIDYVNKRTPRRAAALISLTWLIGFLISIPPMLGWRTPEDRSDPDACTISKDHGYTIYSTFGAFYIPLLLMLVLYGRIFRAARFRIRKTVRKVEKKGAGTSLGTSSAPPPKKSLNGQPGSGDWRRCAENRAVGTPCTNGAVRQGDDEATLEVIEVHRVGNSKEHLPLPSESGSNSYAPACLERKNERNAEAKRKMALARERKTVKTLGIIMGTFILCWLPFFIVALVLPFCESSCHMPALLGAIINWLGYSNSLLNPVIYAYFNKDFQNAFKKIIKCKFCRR

[3] = system: mice; test: Spontaneous locomotor activity; format: in vivo, mouse
[4] = molecular target: T2, D2 receptor (Rattus norvegicus, UniProt P61169); test: Functional D2 receptor [35S]GTPγS assay (antagonist mode vs dopamine; basal for agonism); format: biochemical; conditions: against 40 µM dopamine, rat striatal homogenate; read-out: D2 receptor antagonistic activity IC50 (95% CI);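 also: [35S]GTPγS binding counted by scintillation after 60 min at 30 °C, nonspecific binding defined with 100 µM unlabeled GTPγS, inhibition curves fitted by one-site nonlinear regression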
T2 construct: 15μg/mL of striatal homogenate was incubated in triplicate; from tissue; host or cells: rat striatum homogenate
T2 sequence (P61169 whole entry): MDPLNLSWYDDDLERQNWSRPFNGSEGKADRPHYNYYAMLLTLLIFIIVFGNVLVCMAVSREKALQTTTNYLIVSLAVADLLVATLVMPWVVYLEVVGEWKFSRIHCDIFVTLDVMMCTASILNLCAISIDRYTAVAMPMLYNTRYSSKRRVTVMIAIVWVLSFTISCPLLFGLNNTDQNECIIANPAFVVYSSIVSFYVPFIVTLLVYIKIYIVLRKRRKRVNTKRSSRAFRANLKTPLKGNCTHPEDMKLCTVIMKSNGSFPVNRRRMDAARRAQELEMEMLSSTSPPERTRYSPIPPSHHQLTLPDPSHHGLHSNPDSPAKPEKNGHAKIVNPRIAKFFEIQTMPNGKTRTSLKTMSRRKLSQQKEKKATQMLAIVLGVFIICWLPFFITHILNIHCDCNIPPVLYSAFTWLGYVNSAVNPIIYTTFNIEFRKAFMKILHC

[5] = molecular target: T3, human 5-HT2C receptor (Homo sapiens, UniProt P28335); test: 5-HT2C competition binding assay ([3H]mesulergine, transfected cell membranes); conditions: [3H]mesulergine, human 5-HT2C membranes; read-out: 5-HT2C Ki (95% CI)
T3 sequence (P28335 33-458): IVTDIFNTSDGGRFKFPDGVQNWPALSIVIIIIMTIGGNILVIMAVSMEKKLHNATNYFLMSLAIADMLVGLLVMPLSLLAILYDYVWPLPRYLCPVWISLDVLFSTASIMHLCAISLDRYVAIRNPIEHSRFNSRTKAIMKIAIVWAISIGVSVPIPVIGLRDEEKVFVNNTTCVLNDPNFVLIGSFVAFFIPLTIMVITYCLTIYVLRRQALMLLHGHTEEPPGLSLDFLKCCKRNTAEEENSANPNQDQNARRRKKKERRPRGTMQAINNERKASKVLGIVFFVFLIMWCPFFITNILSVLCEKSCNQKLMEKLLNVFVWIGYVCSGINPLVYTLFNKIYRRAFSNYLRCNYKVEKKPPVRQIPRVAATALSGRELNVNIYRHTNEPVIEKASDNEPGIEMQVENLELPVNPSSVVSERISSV

[6] = system: mice; test: Chimney test (motor coordination); format: in vivo, mouse; conditions: 30 mg/kg i.p., 60 min before the test
Description: (§1) The experiments were carried out, in the Experimental Medicine Center of Medical University of Lublin, on six-week-old naive male Swiss mice, weighing 24–30 g. The mice were housed in cages, five individuals per cage in an environmentally controlled rooms (ambient temperature 22 ± 1 °C; relative humidity 50–60%; 12 h light/dark cycle, lights on at 8:00). Standard laboratory food(LSM-Agropol-Motycz, Lublin, Poland) and filtered water were available ad libitum. All the experimental procedures were carried out, according to the National Institute of Health Guidelines for the Care and Use of Laboratory Animals and to the European Community Council Directive for the Care and Use of Laboratory Animals of 22 September 2010 (2010/63/EU) and approved by the Local Ethics Committee for Animal Experimentation in Lublin. The investigated compounds (Norbo-4, Norbo-8, Norbo-10, Norbo-14, Norbo-18 and Norbo-20) in all tests were administered intraperitoneally (i.p.), dissolved in dimethyl sulfoxide (DMSO, final concentration of 0.1%) and then diluted by aqueous solution of 0.5% methylcellulose (tylose) and injected 60 min before the tests. […] All compounds were given in a volume of 10 mL/kg to mice. The control animals received an equivalent volume of the solvent at the respective time before the tests. All the experiments were conducted in the light phase between 09.00 a.m. and 14.00 p.m. The experiments were performed by an observer unaware of the treatment administered. The effects of investigated compounds on motor coordination were evaluated in the rota-rod and chimney tests. In the first test, motor impairments were measured, defined as the inability to keep balance on a rotating rod (at constant speed of 18 rpm) for 1 min. In the second test, motor impairments were assessed by mouse inability to climb up the tube backwards (3 cm in inner diameter, 25 cm long) within 60 s. Before the tests, the animals were trained once a day for 3 days. The animals able to stay on the rotating rod or to leave the chimney for 60 s were approved for experiments.

[7] = system: mice; test: Rota-rod test (motor coordination); format: in vivo, mouse; conditions: 30 mg/kg i.p., 60 min before the test
Description: as §1

[8] = molecular target: 5-HT2A receptor (Rattus norvegicus, UniProt P14842); test: 5-HT2A competition binding assay ([3H]ketanserin, frontal cortex homogenates)
Sequence of 5-HT2A receptor (P14842 whole entry): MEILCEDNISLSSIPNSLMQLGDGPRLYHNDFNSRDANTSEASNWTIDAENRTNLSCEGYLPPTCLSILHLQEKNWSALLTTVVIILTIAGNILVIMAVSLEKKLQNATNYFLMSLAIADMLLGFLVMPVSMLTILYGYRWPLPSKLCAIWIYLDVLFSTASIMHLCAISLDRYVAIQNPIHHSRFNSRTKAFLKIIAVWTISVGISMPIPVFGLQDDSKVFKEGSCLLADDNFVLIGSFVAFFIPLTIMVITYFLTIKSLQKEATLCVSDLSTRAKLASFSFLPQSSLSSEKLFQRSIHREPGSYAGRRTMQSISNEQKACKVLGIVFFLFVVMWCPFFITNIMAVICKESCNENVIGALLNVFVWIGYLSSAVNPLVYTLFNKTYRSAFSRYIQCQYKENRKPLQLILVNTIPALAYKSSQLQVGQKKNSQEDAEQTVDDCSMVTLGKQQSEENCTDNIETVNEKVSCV

[9] = system: mice; test: Forced swim test (FST, Porsolt's test); format: in vivo, mouse; conditions: 15 mg/kg i.p., 60 min before the test
Description: as §1, with “The experiment was carried out according to the method” for “The effects”, “of Porsolt et al.. Mice were individually placed in a glass cylinder (25 cm high; 10 cm in diameter) containing water maintained at 23–25 °C, and were left there for 6 min. The total duration of immobility was recorded during the last 4 min of a 6-min test session. A mouse was regarded as immobile when it remained floating” for “of investigated compounds”, “on” for “on motor coordination were evaluated in”, “the water, making only small movements” for “the rota-rod and chimney tests. In the first test, motor impairments were measured, defined as the inability”, “keep its head above” for “keep balance on a rotating rod (at constant speed of 18 rpm) for 1 min. In”, “the water.” for “the second test, motor impairments were assessed by mouse inability to climb up the tube backwards (3 cm in inner diameter, 25 cm long) within 60 s. Before the tests, the animals were trained once a day for 3 days. The animals able to stay on the rotating rod or to leave the chimney for 60 s were approved for experiments.”

[10] = 30 mg/kg i.p., after 6 min of observation
[11] = 30 mg/kg i.p., after 20 min of observation

SMILES	Emax, maximal inhibitory effect on 5-HT-induced contractions in the rat ileum [1]	5-HT1A Receptor G-Protein Stimulation pEC50 ([2]; ± SEM)	spontaneous locomotor activity ([3]; 15 mg/kg i.p., after 20 min of observation)	spontaneous locomotor activity [3, 10]	spontaneous locomotor activity [3, 11]	IC50 [4]	Ki [5]	time in chimney [6]	time on rota-rod [7]	Ki ([8]; read-out: 5-HT2A Ki (95% CI))	5-HT1A Receptor G-Protein Stimulation Emax (%) ± SEM [2]	EC50 ([2]; read-out: 5-HT1A Receptor G-Protein Stimulation EC50 (95% CI))	immobility time in FST [9]	Ki ([8]; ± SEM, read-out: 5-HT2A pKi (converted))
O=C(NCCCN1CCN(c2ccc(Cl)c(Cl)c2)CC1)C1CC2C=CC1C2 (stereo not drawn) [Norbo-14, endo-N-(3-(4-(3,4-dichlorophenyl)piperazin-1-yl)propyl)bicyclo[2.2.1]hept-5-ene-2-carboxamide]	22.57%	no activity	significant decrease in locomotor activity	significant decrease in locomotor activity	significant decrease in locomotor activity	41.1 µM	3.64 µM	significant increase of time in chimney; also recorded: disturbed the behavior of mice	decreased also time on rota-rod; also recorded: impaired motor coordination	0.0179 µM				
O=C(NCCCN1CCN(c2ccc(F)cc2)CC1)C1CC2C=CC1C2 (stereo not drawn) [Norbo-18, endo.-N-(3-(4-(4-fluorophenyl)piperazin-1-yl)propyl)bicyclo[2.2.1]hept-5-ene-2-carboxamide]	25.28%			significant decrease in locomotor activity	significant decrease in locomotor activity	82.9 µM	0.212 µM	significant increase of time in chimney; also recorded: disturbed the behavior of mice	decreased also time on rota-rod; also recorded: impaired motor coordination		143 ± 5.1 ^&&& %	2.32 µM	significant reduction in immobility time; also recorded: significant reduction of immobility time	0.0186 µM
